Measurements from ChEMBL document CHEMBL1158978, “Antimicrobial N-methylpyridinium salts related to the xestamines from the Caribbean sponge Calyx podatypa” (1991).
Structures can show the parent of a compound that is named as a salt.

How the values were obtained:
Type in all cases: functional
Details in all cases: read-out: IZ
Staphylococcus aureus = assay: Antimicrobial activity against Staphylococcus aureus at 5 ug/ml by standard disk assay
Bacillus subtilis = assay: Antimicrobial activity against Bacillus subtilis at 5 ug/ml by standard disk assay
Candida albicans = assay: Antimicrobial activity against Candida albicans at 10 ug/ml by standard disk assay

Which results are given for `CON(C)CCCCCCCCCC/C=C\C#CCCCCc1ccc[n+](C)c1` [XESTAMINE F IODIDE SALT]?
zone of inhibition at 5 µg/mL (Staphylococcus aureus): 9 mm; zone of inhibition at 5 µg/mL (Bacillus subtilis): 8 mm; zone of inhibition at 10 µg/mL (Candida albicans): 10 mm
